The values below come from ChEMBL document CHEMBL1268905, “3D-QSAR and docking studies on pyrazolo[4,3-h]qinazoline-3-carboxamides as cyclin-dependent kinase 2 (CDK2) inhibitors” (Bioorg Med Chem Lett, 2010).

For this test, the target named is Cyclin-dependent kinase 2/cyclin A (Homo sapiens, UniProt P24941). As to the kind of experiment: Inhibition of CDK2/cyclin A. Type of test: protein-complex assay.

Usually IC50 stands for the concentration needed to halve the response being measured. `NC(=O)c1cn(Cc2ccccc2)c2c1CCc1cnc(NC3CCCC3)nc1-2` showed an IC50 of 23 nM. Molecule `NC(=O)c1cn(-c2ccccc2)c2c1CCc1cnc(NC3CCCC3)nc1-2` had an IC50 of 20 nM. To `CN1CCN(c2ccc(Nc3ncc4c(n3)-c3c(c(C(N)=O)cn3C)C(C)(C)C4)cc2)CC1` belongs 17 nM. The figure for `NC(=O)c1cn(-c2ccccn2)c2c1CCc1cnc(NC3CCCC3)nc1-2` is 52 nM; for `COc1ccc(-n2cc(C(N)=O)c3c2-c2nc(NC4CCCC4)ncc2CC3)cc1` it is 6 nM; for `CNC(=O)c1cn(C)c2c1C(C)(C)Cc1cnc(Nc3cccc(N4CCN(C)CC4)c3)nc1-2` it is 31 nM. The figure for `CNC(=O)c1cn(C)c2c1C(C)(C)Cc1cnc(Nc3ccc(N4CCOCC4)cc3)nc1-2` is 137 nM; for `NC(=O)c1cn(-c2ccc(S(N)(=O)=O)cc2)c2c1CCc1cnc(NC3CCCC3)nc1-2` it is 5 nM; for `NC(=O)c1cn(CCO)c2c1CCc1cnc(NC3CCCC3)nc1-2` it is 8 nM. `CNC(=O)c1cn(C)c2c1C(C)(C)Cc1cnc(Nc3cccc(N4CCOCC4)c3)nc1-2` gave an IC50 of 248 nM. The figure for `CNC(=O)c1cn(C)c2c1C(C)(C)Cc1cnc(Nc3ccc(OC4CCN(C)CC4)cc3)nc1-2` is 29 nM. To `NC(=O)c1cn(CC(F)(F)F)c2c1CCc1cnc(NC3CCCC3)nc1-2` belongs 5 nM. To `CN1CCC(n2cc(C(N)=O)c3c2-c2nc(NC4CCCC4)ncc2CC3)CC1` belongs 6 nM; to `CNC(=O)c1cn(C)c2c1C(C)(C)Cc1cnc(Nc3cccc(OC4CCN(C)CC4)c3)nc1-2`, 47 nM.

In turn, `CNC(=O)c1cn(C)c2c1C(C)(C)Cc1cnc(Nc3ccc(CN4CCN(C)CC4)cc3)nc1-2` gave an IC50 of 55 nM. The figure for `CNC(=O)c1cn(C2CCN(C)CC2)c2c1CCc1cnc(NC3CCCC3)nc1-2` is 59 nM. The figure for `CC(=O)N1CCC(n2cc(C(N)=O)c3c2-c2nc(NC4CCCC4)ncc2CC3)CC1` is 7 nM. To `CNC(=O)c1cn(C)c2c1C(C)(C)Cc1cnc(Nc3cccc(CN4CCN(C)CC4)c3)nc1-2` belongs 59 nM; to `CNC(=O)c1cn(C)c2c1C(C)(C)Cc1cnc(Nc3ccc(CN4CCOCC4)cc3)nc1-2`, 36 nM. As to `CNC(=O)c1cn(C)c2c1CCc1cnc(NC3CCN(C)CC3)nc1-2`, 4580 nM corresponded to half-maximal inhibition (IC50). To `CNC(=O)c1cn(C)c2c1C(C)(C)Cc1cnc(Nc3cccc(CN4CCOCC4)c3)nc1-2` belongs 160 nM; to `CNC(=O)c1cn(C)c2c1C(C)(C)Cc1cnc(Nc3ccc(N(C)C)cc3)nc1-2`, 59 nM. To `CNC(=O)c1cn(C)c2c1CCc1cnc(NC3CCN(C(C)=O)CC3)nc1-2` belongs 32 nM; to `Cn1cc(C(N)=O)c2c1-c1nc(NC3CCN(C(=O)c4ccccc4)CC3)ncc1CC2`, 3 nM. To `CNC(=O)c1cn(C)c2c1C(C)(C)Cc1cnc(Nc3cccc(N(C)C)c3)nc1-2` belongs 220 nM. `CNC(=O)c1cn(C)c2c1C(C)(C)Cc1cnc(Nc3ccc(CN(C)C)cc3)nc1-2` gave an IC50 of 35 nM. Compared with the last molecule, the IC50 is about 6.3-fold lower.

`Cn1cc(C(N)=O)c2c1-c1nc(NCc3ccccc3)ncc1CC2` had an IC50 of 51.1 nM. For the molecule `CNC(=O)c1cn(C)c2c1CCc1cnc(NC3CCN(C(=O)c4ccccc4)CC3)nc1-2`, the IC50 is 25 nM. To `CN1CCN(C(=O)N2CCC(Nc3ncc4c(n3)-c3c(c(C(N)=O)cn3C)CC4)CC2)CC1` belongs 12 nM; to `CNC(=O)c1cn(C)c2c1C(C)(C)Cc1cnc(Nc3cccc(CN(C)C)c3)nc1-2`, 83 nM. In the case of `COc1cccc(CNc2ncc3c(n2)-c2c(c(C(N)=O)cn2C)CC3)c1`, it took 65.9 nM to reach half-maximal inhibition (IC50). To `COc1ccc(CNc2ncc3c(n2)-c2c(c(C(N)=O)cn2C)CC3)cc1` belongs 57.9 nM; to `CNC(=O)c1cn(C)c2c1CCc1cnc(NC3CCN(C(=O)N4CCN(C)CC4)CC3)nc1-2`, 1120 nM. For `CCOC(=O)N1CCC(Nc2ncc3c(n2)-c2c(c(C(N)=O)cn2C)CC3)CC1`, the IC50 is 1 nM. The figure for `Cn1cc(C(N)=O)c2c1-c1nc(NCc3ccc(Br)cc3)ncc1CC2` is 80.9 nM. To `CC(=O)Nc1ccc(CNc2ncc3c(n2)-c2c(c(C(N)=O)cn2C)CC3)cc1` belongs 13 nM.

In turn, `CCOC(=O)N1CCC(Nc2ncc3c(n2)-c2c(c(C(=O)NC)cn2C)CC3)CC1` showed an IC50 of 57.9 nM. The figure for `Cn1cc(C(N)=O)c2c1-c1nc(NC3CCN(S(C)(=O)=O)CC3)ncc1CC2` is 1 nM; for `Cn1cc(C(N)=O)c2c1-c1nc(NCc3ccc(S(C)(=O)=O)cc3)ncc1CC2` it is 38 nM. The figure for `CN1CCN(c2cccc(CNc3ncc4c(n3)-c3c(c(C(N)=O)cn3C)CC4)c2)CC1` is 104 nM. To `Cn1cc(C(N)=O)c2c1-c1nc(NC3CCN(S(=O)(=O)c4ccccc4)CC3)ncc1CC2` belongs 4 nM. In turn, `CN1CCN(c2ccc(CNc3ncc4c(n3)-c3c(c(C(N)=O)cn3C)CC4)cc2)CC1` showed an IC50 of 17 nM. The figure for `Cn1cc(C(N)=O)c2c1-c1nc(NCc3ccncc3)ncc1CC2` is 21 nM; for `CNC(=O)c1cn(C)c2c1CCc1cnc(NC3CCN(S(=O)(=O)c4ccccc4)CC3)nc1-2` it is 5 nM; for `Cn1cc(C(N)=O)c2c1-c1nc(NCc3cccnc3)ncc1CC2` it is 21 nM.

The molecule `Cn1cc(C(N)=O)c2c1-c1nc(NCc3ccccn3)ncc1CC2` gave a half-maximal inhibitory concentration (IC50) of 86.9 nM. To `Cn1cc(C(=O)NCCO)c2c1-c1nc(Nc3ccccc3)ncc1CC2` belongs 74 nM; to `Cn1cc(C(N)=O)c2c1-c1nc(NCCN3CCOCC3)ncc1CC2`, 209 nM; to `Cn1cc(C(N)=O)c2c1-c1nc(NCCO)ncc1CC2`, 19 nM.

Regarding `CCN1CCC(Nc2ncc3c(n2)-c2c(c(C(N)=O)cn2C)CC3)CC1`, the IC50 is 149 nM. To `Cn1cc(C(=O)NCc2ccccc2)c2c1-c1nc(Nc3ccccc3)ncc1CC2` belongs 1050 nM; to `CNC(=O)c1cn(C)c2c1CCc1cnc(NC3CCCC3)nc1-2`, 97.1 nM; to `CC(CN(C)C)NC(=O)c1cn(C)c2c1CCc1cnc(NC3CCCC3)nc1-2` (centres undefined), 1760 nM.

`CN1CCN(c2ccc(Nc3ncc4c(n3)-c3c(c(C(N)=O)cn3C)CC4)cc2)CC1` had an IC50 of 2 nM. To `CN1CCN(c2cccc(Nc3ncc4c(n3)-c3c(c(C(N)=O)cn3C)CC4)c2)CC1` belongs 1 nM; to `CN(O)C(=O)c1cn(C)c2c1CCc1cnc(NC3CCCC3)nc1-2`, 175 nM; to `Cn1cc(C(=O)N(O)Cc2ccccc2)c2c1-c1nc(NC3CCCC3)ncc1CC2`, 1370 nM. The figure for `Cn1cc(C(N)=O)c2c1-c1nc(Nc3ccc(N4CCOCC4)cc3)ncc1CC2` is 14 nM; for `Cn1cc(C(N)=O)c2c1-c1nc(Nc3ccccc3)ncc1CC2(C)C` it is 24 nM.
